The text below walks through data of patent publication US20090259275A1, “METHODS OF TREATING BRAIN DAMAGES” (priority 2008, published 2009).

For one test, the system named is PAK1 phosphorylation. Kind of test: Immunoblot of PAK1 phosphorylation (serine 423) in EF-exposed explants. The note with it: DAPV; EF 250 mV/mm for 60 min. The test is classed as cell-based, rat. From the text: (§1) The methods for immunocytochemistry and coimmunoprecipitation have been described in detail in Ning et al., “Dual neuroprotective signaling mediated by downregulating two distinct phosphatase activities of PTEN,” J. Neurosci., 24, 4052-60, (2004); and Liu et al., “Ischemic insults direct glutamate receptor subunit 2-lacking AMPA receptors to synaptic sites,” J. Neurosci., 26, 5309-19 (2006), both of which are incorporated herein by reference. For immunocytochemical labeling, the guinea-pig anti-DCX (obtained from Santa Cruz Biotechnology, Santa Cruz, Calif.), mouse anti-nestin (obtained from Chemicon, Billerica, Mass.), rabbit anti-NR1 (obtained from Chemicon), and rabbit anti-NR2B (obtained from Novas Biologicals, Littleton, Colo.) primary antibodies were used. Secondary antibodies consisted of Alex Fluor 488 and 596 were purchased from Molecular Probes, Eugene, Oreg. Imaging was performed with a Zeiss LSM 510 META confocal microscope and image processing was performed with Image J software (obtained from NIH). For coimmunoprecipitation assay, rabbit anti-TIAM1 (obtained from Santa Cruz), rabbit anti-NR2B (obtained from Novus Biologicals), rabbit anti-phosphorylated PAK1 at serine 423 (obtained from Santa Cruz) and mouse anti-actin (obtained from Chemicon) were used. […]
For orientation: Immunoblotting shows a protein as a band on a membrane.

For test [1], the system named is association of p-PAK1 with TIAM1. Kind of test: Coimmunoprecipitation of p-PAK1 with TIAM1 in EF-exposed LGE explants. In kind it is cell-based, rat. The note with it: DAPV.
Text: as §1

The test system of test [2] is NSPC migration toward cathode. The experiment in a line: EF-directed NSPC migration in LGE explant cultures. The note with it: DAPV 10 μM, EF 30 mV/mm for 10 hours. In kind it is cell-based, rat. The procedure: Explants (100-300 μm in diameter) were selected for observation. For the electric field (EF) application, agar-salt bridges were used to connect silver/silver chloride electrodes in beakers containing Steinberg's solution to pools of excess culture medium at either side of the chamber. The electric field strengths were measured directly at the beginning and end of the observation period. For time-lapse observation, HEPES acid (25 mM) was added to the culture medium to adjust pH to 7.4. Time-lapse imaging was performed with an inverted microscope (Zeiss Axiovert 200M, obtained from Zeiss, Oberkochen, Germany) that was used to record digitally the migration of NSPCs for 3 hours. […] At the end of exposure period explants were fixed in 4% paraformaldehyde and then digitally photographed for quantification. […] To quantify velocity and directedness of cell motion, the cell centroid was calculated with Image J software (obtained from NIH). […] The directedness of motion was expressed as a function of cosine. It was calculated by defining movements in the X-plane towards the cathode (or mock-cathode) as negative. […] For quantification of long-term EF-exposed cells, the symmetry was expressed as a function of the distribution of cells around the explant. Total cell numbers in the cathode and anode facing quadrants were calculated. […]

The target of test [3] is T1, NMDAR association with TIAM1 (Rattus norvegicus, UniProt Q00960).
T1 construct: from tissue; host or cells: rat (Wistar) E17-18 lateral ganglionic eminence explant cultures
The experiment in a line: Coimmunoprecipitation of NMDAR (NR2B) with TIAM1 in EF-exposed LGE explants. The note with it: DAPV 10 μM, EF 250 mV/mm for 60 minutes. The test is classed as cell-based. An excerpt:
The methods for immunocytochemistry and coimmunoprecipitation have been described in detail in Ning et al., “Dual neuroprotective signaling mediated by downregulating two distinct phosphatase activities of PTEN,” J. Neurosci., 24, 4052-60, (2004); and Liu et al., “Ischemic insults direct glutamate receptor subunit 2-lacking AMPA receptors to synaptic sites,” J. Neurosci., 26, 5309-19 (2006), both of which are incorporated herein by reference. For immunocytochemical labeling, the guinea-pig anti-DCX (obtained from Santa Cruz Biotechnology, Santa Cruz, Calif.), mouse anti-nestin (obtained from Chemicon, Billerica, Mass.), rabbit anti-NR1 (obtained from Chemicon), and rabbit anti-NR2B (obtained from Novas Biologicals, Littleton, Colo.) primary antibodies were used. Secondary antibodies consisted of Alex Fluor 488 and 596 were purchased from Molecular Probes, Eugene, Oreg. Imaging was performed with a Zeiss LSM 510 META confocal microscope and image processing was performed with Image J software (obtained from NIH). For coimmunoprecipitation assay, rabbit anti-TIAM1 (obtained from Santa Cruz), rabbit anti-NR2B (obtained from Novus Biologicals), rabbit anti-phosphorylated PAK1 at serine 423 (obtained from Santa Cruz) and mouse anti-actin (obtained from Chemicon) were used.
Rearrangement of the actin cytoskeletal network is an essential process in neural migration. […]

For test [4], the system named is association between actin and TIAM1. Kind of test: Coimmunoprecipitation of actin with TIAM1 in EF-exposed explants. In kind it is cell-based, rat. The note with it: DAPV.
Text: as §1

“Also recorded” adds a separate entry of the source.

T1 sequence (Q00960 27-1482, other chains not shown): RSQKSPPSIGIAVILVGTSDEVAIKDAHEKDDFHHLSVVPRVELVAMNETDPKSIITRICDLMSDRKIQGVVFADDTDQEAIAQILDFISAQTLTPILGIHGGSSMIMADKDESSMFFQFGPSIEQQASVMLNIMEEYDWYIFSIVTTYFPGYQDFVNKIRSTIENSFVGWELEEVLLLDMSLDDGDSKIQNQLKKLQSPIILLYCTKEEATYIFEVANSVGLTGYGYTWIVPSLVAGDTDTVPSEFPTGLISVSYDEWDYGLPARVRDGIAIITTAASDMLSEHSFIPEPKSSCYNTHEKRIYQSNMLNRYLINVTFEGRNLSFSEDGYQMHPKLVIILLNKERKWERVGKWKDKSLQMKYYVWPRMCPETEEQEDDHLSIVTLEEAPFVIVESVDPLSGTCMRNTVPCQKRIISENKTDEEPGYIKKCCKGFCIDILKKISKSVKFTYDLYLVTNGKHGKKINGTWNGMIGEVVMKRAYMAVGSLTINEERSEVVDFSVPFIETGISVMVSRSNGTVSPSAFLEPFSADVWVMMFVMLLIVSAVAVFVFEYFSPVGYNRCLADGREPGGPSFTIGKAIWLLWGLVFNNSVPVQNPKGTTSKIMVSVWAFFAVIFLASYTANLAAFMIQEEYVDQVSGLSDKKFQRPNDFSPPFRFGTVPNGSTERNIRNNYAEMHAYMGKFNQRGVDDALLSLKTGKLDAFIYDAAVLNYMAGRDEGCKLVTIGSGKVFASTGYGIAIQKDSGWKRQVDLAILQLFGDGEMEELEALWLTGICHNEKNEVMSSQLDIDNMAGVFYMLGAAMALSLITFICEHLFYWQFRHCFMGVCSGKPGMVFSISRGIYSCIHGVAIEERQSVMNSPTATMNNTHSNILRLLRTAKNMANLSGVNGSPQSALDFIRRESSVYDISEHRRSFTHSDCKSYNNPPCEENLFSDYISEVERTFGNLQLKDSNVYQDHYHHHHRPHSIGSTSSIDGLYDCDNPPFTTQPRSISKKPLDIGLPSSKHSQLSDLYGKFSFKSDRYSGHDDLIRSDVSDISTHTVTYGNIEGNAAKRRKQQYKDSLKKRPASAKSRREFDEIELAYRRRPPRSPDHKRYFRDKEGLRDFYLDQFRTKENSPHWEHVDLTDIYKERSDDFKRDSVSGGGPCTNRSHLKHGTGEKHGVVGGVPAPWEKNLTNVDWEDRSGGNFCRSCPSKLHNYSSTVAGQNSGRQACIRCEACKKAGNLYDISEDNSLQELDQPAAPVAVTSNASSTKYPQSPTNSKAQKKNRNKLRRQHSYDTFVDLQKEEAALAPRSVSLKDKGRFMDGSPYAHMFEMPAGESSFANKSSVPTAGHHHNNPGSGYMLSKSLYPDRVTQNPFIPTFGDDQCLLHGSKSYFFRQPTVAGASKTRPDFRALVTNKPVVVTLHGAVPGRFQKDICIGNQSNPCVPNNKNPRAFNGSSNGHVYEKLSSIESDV

For the molecule `N[C@H](CCCP(=O)(O)O)C(=O)O` [DAPV], in the test on PAK1 phosphorylation, the “EF-mediated increase of PAK1 phosphorylation” value is recorded as “significantly attenuated; also recorded: blocked”. Besides, the “EF-enhanced association of p-PAK1 with TIAM1” value in test [1] is listed as “abolished”. Further, the “NSPC migration toward cathode on the cathode side of explants” value in test [2] is on record as “significantly inhibited; also recorded: significantly attenuated”. Also, the “EF-induced increase of NMDAR (NR2B) association with TIAM1” value in test [3] is reported as “inhibited; also recorded: suppressed”. In addition, the “EF-induced increase of association between actin and TIAM1” value in test [4] is “suppressed; also recorded: inhibited”.
